Reference: patent US20040063696A1, “1,1-dioxo-2h-1,2-benzothiazine-3-carboxamide derivatives,method for preparing same and pharmaceutical compositions comprising same” (priority 2000, published 2004)

Tested on: aggrecan
Experiment: Expression of aggrecan in articular chondrocytes treated with IL-1 (Northern blot)
Assay type: cell-based
Conditions: calf articular chondrocytes, compared with cultures treated with 10 ng/ml of IL-1
Method: The expression of aggrecan was analysed by Northern blot. Total RNA of cultures of calf articular chondrocytes (CAC) cultured in DMEM+10% FCS and treated with different concentrations of the test compounds, in the presence of IL-1 (10 ng/ml), were extracted, 10 μg of the total RNA were fractionated by electrophoresis on a 1% agarose gel in the presence of an MOPS-formaldehyde buffer, transferred to a nylon membrane and hybridised with a specific aggrecan cDNA probe.

CC[N+](C)(CC)CCCNC(=O)C1=C(O)c2ccccc2S(=O)(=O)N1C.[I-] [Example 1, {3-[(4-Hydroxy-2-methyl-1,1-dioxo-2H-1,2-benzothiazin-3-yl)-carbonylamino]propyl}diethylmethylammonium iodide]
stimulation of the expression of aggrecan (10^−6 M): 150%
stimulation of the expression of aggrecan (10^−M (so in the source)): 200%
